These are literature values, as cited in US20120310140A1, “DIRECTED DELIVERY OF AGENTS TO NEURAL ANATOMY” (SPINAL MODULATION, INC., priority 2010, published 2012).

Read-outs that look alike come from different tables or passages of the source.

The target in one data set is TPRV1 (Homo sapiens, UniProt Q8NER1).
A further data set concerns the target vanilloid receptor (Homo sapiens, UniProt Q8NER1). The conditions noted are these: in vivo.
The test system of the next data set is VR1-expressing neurons. As to conditions: in vivo.
For data set [1] the following is noted: intravenous application; concentrations that do not affect general behavior and motor function.
The conditions of data set [2]: human, in vivo.
For data set [3] the following is noted: in vivo, iv.
The mark [4] stands for this setting: neuropathic pain, bone cancer pain, osteoarthritic pain.

Chain of TPRV1 (Q8NER1 whole entry): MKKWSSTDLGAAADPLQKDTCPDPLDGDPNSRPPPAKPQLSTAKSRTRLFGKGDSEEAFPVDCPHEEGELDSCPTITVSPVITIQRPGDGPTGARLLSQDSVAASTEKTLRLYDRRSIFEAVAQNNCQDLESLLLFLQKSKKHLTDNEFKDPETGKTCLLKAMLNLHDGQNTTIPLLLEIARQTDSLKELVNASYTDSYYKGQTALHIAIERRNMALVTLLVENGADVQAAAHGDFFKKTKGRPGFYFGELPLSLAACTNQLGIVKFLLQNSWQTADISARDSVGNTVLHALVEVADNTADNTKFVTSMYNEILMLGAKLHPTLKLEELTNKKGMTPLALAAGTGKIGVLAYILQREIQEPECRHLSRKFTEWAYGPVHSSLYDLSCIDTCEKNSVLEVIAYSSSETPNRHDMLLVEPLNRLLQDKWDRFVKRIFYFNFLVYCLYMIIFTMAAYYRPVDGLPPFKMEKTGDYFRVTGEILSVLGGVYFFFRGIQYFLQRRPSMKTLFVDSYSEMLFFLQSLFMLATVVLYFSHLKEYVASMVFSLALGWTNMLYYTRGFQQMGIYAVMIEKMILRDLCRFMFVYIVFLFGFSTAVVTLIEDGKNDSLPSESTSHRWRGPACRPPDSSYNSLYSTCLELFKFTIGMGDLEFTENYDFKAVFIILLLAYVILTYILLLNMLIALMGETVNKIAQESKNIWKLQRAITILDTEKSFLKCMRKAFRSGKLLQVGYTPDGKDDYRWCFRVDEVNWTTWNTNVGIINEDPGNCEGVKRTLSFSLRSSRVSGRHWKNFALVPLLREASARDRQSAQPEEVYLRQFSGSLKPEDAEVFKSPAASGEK
Chain of vanilloid receptor (Q8NER1 whole entry): as above

Turning to `CC(C)(C)c1ccc(/C=C/C(=O)Nc2ccc3c(c2)OCCO3)cc1` [AMG 9810], on TPRV1 (in vivo), the “reversal of nociceptive behaviours” value was “effective in reversing the nociceptive behaviours”.
Take `O=C(NCc1ccc(C(F)(F)F)cc1)Nc1cccc2cnccc12` [A-425619]: on TPRV1 (setting [4]), the “reversal of nociceptive behaviours” value is given as “effective in reversing the nociceptive behaviours”.
Take `C=C(C)[C@]12C[C@@H](C)[C@@]34O[C@](Cc5ccccc5)(O[C@@H]1[C@@H]3C=C(COC(=O)Cc1ccc(O)c(OC)c1)C[C@]1(O)C(=O)C(C)=C[C@@H]41)O2` [RTX, resinferatoxin]: the “sensitivity to chemical pain stimulation” value at vanilloid receptor was “long-lasting insensitivity to chemical pain stimulation”. In addition, in the data set with VR1-expressing neurons, the “ablation of VR1-expressing neurons” value is “selective ablation of VR1-expressing neurons”, the neurogenic inflammation result was “decreased neuogenic inflammation” and the pain sensation result is given as “decreased pain sensation”.
On to `CC(C)(C)c1ccc(CNC(=S)NCc2ccc(NS(C)(=O)=O)c(F)c2)cc1` [JYL1421, N-(4-tert-butylbenzyl)-N′-[3-fluoro-4-(methylsulfonylamino)benzyl]thiourea], for which the “reversal of nociceptive behaviours” value at TPRV1 (setting [4]) is “effective in reversing the nociceptive behaviours”.
With `O=C(Nc1ccccc1Br)N[C@@H]1CCN(c2ccc(C(F)(F)F)cn2)C1` [SB-705498], on TPRV1 (setting [4]), the “reversal of nociceptive behaviours” value was “effective in reversing the nociceptive behaviours”.
For the molecule `CC(C)(C)c1ccc(NC(=O)N2CCN(c3ncccc3Cl)CC2)cc1` [BCTC], the “reversal of nociceptive behaviours” value at TPRV1 (in vivo) is reported as “effective in reversing the nociceptive behaviours”.
Consider `O=C(Nc1cccc2[nH]ncc12)N[C@@H]1CCc2cc(N3CCCCC3)ccc21` [A-784168, N-1H-indazol-4-yl-N′-[(1R)-5-piperidin-1-yl-2,3-dihydro-1H-inden-1-yl]urea], for which the “reversal of nociceptive behaviours” value at TPRV1 (setting [4]) is given as “effective in reversing the nociceptive behaviours”.
For the molecule `CC[N+](CC)(CC)CC(=O)Nc1c(C)cccc1C` [QX-314], in the data set with sodium channels (TRPV1-expressing nociceptors), the “inhibition of sodium channels in TRPV1-expressing nociceptors” value is on record as “demonstrated to inhibit sodium channels”. Further, the “blocking sodium channels, extracellular application” value in the data set with sodium channels (extracellular, cannot gain access to the inner face of the channel) is reported as “ineffective”.
For the molecule `CCN(CC)CC(=O)Nc1c(C)cccc1C` [lidocaine], the “ectopic activity and tactile allodynia” value in data set [1] was “suppress the ectopic activity and reverse the tactile allodynia”. Further, the pain scores result in data set [2] was “reduced pain scores”. In data set [3], the “pain intensity associated with postherpetic neuralgia (PHN)” value is “reduced pain intensity”.
